Our source for the TGI values is PubChem BioAssay (NCI).

Some test systems named below: HCT-116 colon; OVCAR-3 ovarian; SF-295 CNS; SNB-19 CNS; SK-MEL-28 melanoma; OVCAR-5 ovarian; HOP-92 NSCLC; UACC-62 melanoma; SNB-75 CNS; HCC-2998 colon; NCI-H226 lung.
What all share (assay): DTP human tumour cell line panel, 48 h

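The compound was tested at five concentrations on cells cultured in 96-well plates, with a 48-hour exposure period. TGI: concentration producing complete growth inhibition.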 A value given as a limit tells only on which side of the number the result lay.

Usually TGI stands for the concentration at which net growth stops. Low readings indicate greater sensitivity of the cells, high ones lower sensitivity of the cells. Regarding `NC1=NS(=O)(=O)Nc2nc(-c3ccc([N+](=O)[O-])o3)[nH]c21`, the TGI in the experiment on HCT-116 colon is 17.7 µM; in the experiment with OVCAR-3 ovarian, 52.8 µM; in the experiment with SF-295 CNS, 29.8 µM; in the experiment with SNB-19 CNS it was 35.9 µM; with SK-MEL-28 melanoma it was 30.1 µM; in the experiment with OVCAR-5 ovarian, 35 µM. In addition, the TGI is 27.1 µM in the experiment on HOP-92 NSCLC, 30 µM in the experiment on UACC-62 melanoma, 30.3 µM in the experiment on SNB-75 CNS and 32.2 µM with HCC-2998 colon.
`CCCSc1ccc2[nH]c(/N=C/c3ccco3)cc2c1`: the TGI in the experiment with HCT-116 colon, in the experiment on OVCAR-3 ovarian, with SF-295 CNS, with SNB-19 CNS, in the experiment with SK-MEL-28 melanoma and with OVCAR-5 ovarian was above 100 µM throughout. The TGI in the experiment on HOP-92 NSCLC, with UACC-62 melanoma and with SNB-75 CNS was above 100 µM throughout.
Consider `Nc1c(Cl)ncnc1N[C@@H]1C[C@H]1CO`, for which the TGI in the experiment with HCT-116 colon, in the experiment on OVCAR-3 ovarian, in the experiment on SF-295 CNS, with SNB-19 CNS, in the experiment with SK-MEL-28 melanoma and in the experiment on OVCAR-5 ovarian was above 100 µM each time. The TGI in the experiment on HOP-92 NSCLC, in the experiment on UACC-62 melanoma, in the experiment with SNB-75 CNS and with HCC-2998 colon was above 100 µM throughout.
With `NC1=NS(=O)(=O)Nc2nc(-c3ccc(Cl)cc3)c(-c3ccc(Cl)cc3)nc21`, the TGI in the experiment on HCT-116 colon, in the experiment on OVCAR-3 ovarian, in the experiment with SF-295 CNS, in the experiment with SNB-19 CNS, in the experiment on SK-MEL-28 melanoma and with OVCAR-5 ovarian was above 100 µM in each case. The TGI with HOP-92 NSCLC, in the experiment with UACC-62 melanoma, in the experiment with SNB-75 CNS and with HCC-2998 colon was above 100 µM throughout.
Consider `O=C1c2ccccc2-c2nc(-c3cccc([N+](=O)[O-])c3)nnc21`, for which the TGI in the experiment on HCT-116 colon is above 100 µM; in the experiment on SF-295 CNS it was above 100 µM; in the experiment on NCI-H226 lung it was 35.9 µM; in the experiment on SNB-19 CNS, above 100 µM; in the experiment on OVCAR-5 ovarian it was 50 µM; in the experiment on HOP-92 NSCLC, above 100 µM. The results for the TGI with UACC-62 melanoma and in the experiment on SNB-75 CNS were 32 µM and 59 µM, respectively.
On to `CC1Cn2c(nc3ccccc32)NC1=O` (stereo not given), for which the TGI in the experiment with HCT-116 colon, with OVCAR-3 ovarian, in the experiment with SF-295 CNS, with NCI-H226 lung, with SNB-19 CNS and in the experiment on OVCAR-5 ovarian was above 100 µM in each case. Besides, the TGI with HOP-92 NSCLC, with UACC-62 melanoma and with SNB-75 CNS was above 100 µM each time.
Take `CCC1(C)N=C(c2cnccn2)NN1c1ccc(Cl)cc1` (stereo not given): the TGI in the experiment on HCT-116 colon, in the experiment with OVCAR-3 ovarian, with SF-295 CNS, with NCI-H226 lung, in the experiment with SNB-19 CNS and in the experiment with SK-MEL-28 melanoma was above 100 µM throughout. For the same compound, the TGI in the experiment with OVCAR-5 ovarian, with HOP-92 NSCLC, in the experiment with UACC-62 melanoma and with SNB-75 CNS was above 100 µM each time.
For `O=C1c2ccccc2C(=O)N1Cc1ccccc1-c1c2nc(c(-c3ccccc3CN3C(=O)c4ccccc4C3=O)c3ccc([nH]3)c(-c3ccccc3CN3C(=O)c4ccccc4C3=O)c3nc(c(-c4ccccc4CN4C(=O)c5ccccc5C4=O)c4ccc1[nH]4)C=C3)C=C2`, the TGI in the experiment with HCT-116 colon, in the experiment on OVCAR-3 ovarian, in the experiment with SF-295 CNS, in the experiment on NCI-H226 lung, in the experiment with SK-MEL-28 melanoma and in the experiment on OVCAR-5 ovarian was above 100 µM throughout. Besides, the TGI with HOP-92 NSCLC, in the experiment on UACC-62 melanoma and in the experiment with SNB-75 CNS was above 100 µM in each case.
With `O=C(OCC1OC2OC(c3ccccc3)(n3ccc4c([N+](=O)[O-])ccnc43)OC2C1OC(=O)c1ccccc1)c1ccccc1` (stereo not given), the TGI with HCT-116 colon, with OVCAR-3 ovarian, in the experiment on SF-295 CNS, in the experiment on NCI-H226 lung, with SNB-19 CNS and with SK-MEL-28 melanoma was above 100 µM in each case. In addition, the TGI in the experiment with OVCAR-5 ovarian, with HOP-92 NSCLC, with UACC-62 melanoma and in the experiment on HCC-2998 colon was above 100 µM each time.
As to `CCOC(=O)/C1=C(\C)N(c2ccc(C)cc2)C(=O)c2ccccc2C(=O)c2c(OC(C)=O)ccc(OC(C)=O)c21`, the TGI in the experiment on HCT-116 colon worked out at 35.9 µM; in the experiment on OVCAR-3 ovarian it was 39.3 µM; in the experiment with SF-295 CNS, 43.2 µM; in the experiment with NCI-H226 lung it was 65.7 µM; with SNB-19 CNS it was 90.1 µM; in the experiment with SK-MEL-28 melanoma it was 12.2 µM. Further, the TGI is above 100 µM with OVCAR-5 ovarian, above 100 µM in the experiment with HOP-92 NSCLC, 42.1 µM in the experiment on UACC-62 melanoma and above 100 µM in the experiment with SNB-75 CNS.
For `CC(=O)c1ccc2c3c1[C@@H]1O[C@@H]1c1cccc(c1-3)[C@@H]1O[C@H]21`, the TGI with HCT-116 colon is 13.9 µM; with OVCAR-3 ovarian, 30.4 µM; in the experiment with SF-295 CNS, 38.3 µM; in the experiment on NCI-H226 lung it was above 95.1 µM; with SNB-19 CNS, above 60.9 µM; with SK-MEL-28 melanoma it was 13 µM. Further, the TGI came out at 34.7 µM with OVCAR-5 ovarian, 29.7 µM in the experiment with HOP-92 NSCLC, 31.1 µM in the experiment on UACC-62 melanoma and 34.5 µM in the experiment with SNB-75 CNS.
